According to publication PMC11702208 (RSC Advances, 2025):
Several values for one entry are separate records, joined by “and”; a condition that tells them apart may be missing. Identical values can stand only once.

Key:
EKVX = assay: NCI cytotoxicity screen; format: cell-based, human; conditions: 10.0 μM one dose
UO-31 = assay: NCI cytotoxicity screen; format: cell-based, human; conditions: 10.0 μM one dose
U251 = assay: NCI cytotoxicity screen; format: cell-based, human; conditions: 10.0 μM one dose; U-251
SF-268 = assay: NCI cytotoxicity screen; format: cell-based, human; conditions: 10.0 μM one dose
CAKI-1 = assay: NCI cytotoxicity screen; format: cell-based, human; conditions: 10.0 μM one dose
NCI-H322M = assay: NCI cytotoxicity screen; format: cell-based, human; conditions: 10.0 μM one dose
SNB-75 = assay: NCI cytotoxicity screen; format: cell-based, human; conditions: 10.0 μM one dose
HOP-92 = assay: NCI cytotoxicity screen; format: cell-based, human; conditions: 10.0 μM one dose
NCI-H522 = assay: NCI cytotoxicity screen; format: cell-based, human; conditions: 10.0 μM one dose
HS 578T = assay: NCI cytotoxicity screen; format: cell-based, human; conditions: 10.0 μM one dose; HS-578T
UACC-62 = assay: NCI cytotoxicity screen; format: cell-based, human; conditions: 10.0 μM one dose
MDA-MB-231/ATCC = assay: NCI cytotoxicity screen; format: cell-based, human; conditions: 10.0 μM one dose; MDA-MB-231/ATCC
MCF7 = assay: NCI cytotoxicity screen; format: cell-based, human; conditions: 10.0 μM one dose; MCF-7
HER2 = HER2 (Homo sapiens, UniProt P04626); assay: HER2 tyrosine kinase assay; format: biochemical; conditions: IC50 HER2 inhibition
Chain of HER2 (P04626 23-1255): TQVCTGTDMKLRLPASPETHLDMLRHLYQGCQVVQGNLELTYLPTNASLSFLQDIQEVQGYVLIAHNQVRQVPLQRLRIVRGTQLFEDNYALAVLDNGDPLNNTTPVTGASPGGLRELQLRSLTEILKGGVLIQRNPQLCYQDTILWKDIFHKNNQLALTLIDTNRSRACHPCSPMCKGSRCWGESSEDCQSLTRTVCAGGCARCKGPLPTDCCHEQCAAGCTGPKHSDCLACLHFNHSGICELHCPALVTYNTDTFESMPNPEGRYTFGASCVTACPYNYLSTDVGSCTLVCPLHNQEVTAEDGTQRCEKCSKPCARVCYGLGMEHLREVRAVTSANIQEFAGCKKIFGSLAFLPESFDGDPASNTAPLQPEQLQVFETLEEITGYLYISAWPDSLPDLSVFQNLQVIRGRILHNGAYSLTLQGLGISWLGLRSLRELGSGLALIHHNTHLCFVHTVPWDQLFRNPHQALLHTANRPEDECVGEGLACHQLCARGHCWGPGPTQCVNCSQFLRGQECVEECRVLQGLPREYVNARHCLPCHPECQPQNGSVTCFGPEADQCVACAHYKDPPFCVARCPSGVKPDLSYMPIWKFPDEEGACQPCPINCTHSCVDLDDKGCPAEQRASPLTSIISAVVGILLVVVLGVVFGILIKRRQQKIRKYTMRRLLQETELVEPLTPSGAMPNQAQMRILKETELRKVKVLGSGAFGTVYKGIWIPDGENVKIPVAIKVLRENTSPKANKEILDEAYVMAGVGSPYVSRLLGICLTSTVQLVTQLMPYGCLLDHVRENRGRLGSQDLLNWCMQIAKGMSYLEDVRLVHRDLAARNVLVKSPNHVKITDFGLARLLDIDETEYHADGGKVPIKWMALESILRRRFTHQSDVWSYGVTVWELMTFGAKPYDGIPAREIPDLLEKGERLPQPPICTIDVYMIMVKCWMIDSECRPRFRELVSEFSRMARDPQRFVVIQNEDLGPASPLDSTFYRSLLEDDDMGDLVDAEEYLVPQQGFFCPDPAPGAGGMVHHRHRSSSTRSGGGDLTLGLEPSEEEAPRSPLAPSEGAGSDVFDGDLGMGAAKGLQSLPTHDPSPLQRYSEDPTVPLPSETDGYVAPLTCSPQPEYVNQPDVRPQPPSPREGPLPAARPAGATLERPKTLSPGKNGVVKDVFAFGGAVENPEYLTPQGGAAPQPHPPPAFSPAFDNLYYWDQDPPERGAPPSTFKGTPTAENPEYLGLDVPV

59 cancer cell lines = assay: NCI cytotoxicity screen, full panel; format: cell-based, human; conditions: 10.0 μM one dose; 59 cell lines
CDK9 = CDK9 (Homo sapiens, UniProt P50750); assay: biochemical; conditions: IC50 CDK9 inhibition
Chain of CDK9 (P50750 whole entry): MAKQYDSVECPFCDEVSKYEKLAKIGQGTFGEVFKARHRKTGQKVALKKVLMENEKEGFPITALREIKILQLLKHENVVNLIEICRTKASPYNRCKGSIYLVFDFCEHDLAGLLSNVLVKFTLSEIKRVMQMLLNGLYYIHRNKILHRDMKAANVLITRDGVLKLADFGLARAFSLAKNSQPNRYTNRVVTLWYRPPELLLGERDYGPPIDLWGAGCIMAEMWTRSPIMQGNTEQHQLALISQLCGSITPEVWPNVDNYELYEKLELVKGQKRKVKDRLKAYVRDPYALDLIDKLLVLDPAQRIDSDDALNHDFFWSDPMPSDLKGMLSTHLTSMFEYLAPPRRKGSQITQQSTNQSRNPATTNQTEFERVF
Chain of CDK9 (O60563 whole entry partner): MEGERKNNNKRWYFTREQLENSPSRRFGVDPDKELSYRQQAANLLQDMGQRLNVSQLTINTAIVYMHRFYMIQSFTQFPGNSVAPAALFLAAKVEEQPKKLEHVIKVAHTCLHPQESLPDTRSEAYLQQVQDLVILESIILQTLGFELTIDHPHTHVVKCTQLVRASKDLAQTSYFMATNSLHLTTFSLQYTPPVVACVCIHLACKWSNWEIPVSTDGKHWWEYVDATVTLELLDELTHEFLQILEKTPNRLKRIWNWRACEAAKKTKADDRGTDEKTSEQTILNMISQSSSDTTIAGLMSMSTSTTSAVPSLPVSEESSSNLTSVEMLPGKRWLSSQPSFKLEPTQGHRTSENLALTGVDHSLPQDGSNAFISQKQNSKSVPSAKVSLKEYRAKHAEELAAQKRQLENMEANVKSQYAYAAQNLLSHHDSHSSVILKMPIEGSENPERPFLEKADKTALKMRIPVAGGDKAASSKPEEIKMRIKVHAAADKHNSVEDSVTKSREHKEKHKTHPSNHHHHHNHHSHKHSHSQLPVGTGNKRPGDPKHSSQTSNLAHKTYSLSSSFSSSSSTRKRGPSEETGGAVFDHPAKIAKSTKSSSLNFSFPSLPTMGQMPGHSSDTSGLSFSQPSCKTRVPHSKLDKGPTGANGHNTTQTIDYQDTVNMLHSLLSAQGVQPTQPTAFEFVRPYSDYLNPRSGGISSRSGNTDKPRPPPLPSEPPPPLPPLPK

COX-2 = molecular target: T1, COX-2 (Ovis aries, UniProt P79208); assay: Colorimetric COX; format: biochemical, ovine
T1 sequence (P79208 17-603): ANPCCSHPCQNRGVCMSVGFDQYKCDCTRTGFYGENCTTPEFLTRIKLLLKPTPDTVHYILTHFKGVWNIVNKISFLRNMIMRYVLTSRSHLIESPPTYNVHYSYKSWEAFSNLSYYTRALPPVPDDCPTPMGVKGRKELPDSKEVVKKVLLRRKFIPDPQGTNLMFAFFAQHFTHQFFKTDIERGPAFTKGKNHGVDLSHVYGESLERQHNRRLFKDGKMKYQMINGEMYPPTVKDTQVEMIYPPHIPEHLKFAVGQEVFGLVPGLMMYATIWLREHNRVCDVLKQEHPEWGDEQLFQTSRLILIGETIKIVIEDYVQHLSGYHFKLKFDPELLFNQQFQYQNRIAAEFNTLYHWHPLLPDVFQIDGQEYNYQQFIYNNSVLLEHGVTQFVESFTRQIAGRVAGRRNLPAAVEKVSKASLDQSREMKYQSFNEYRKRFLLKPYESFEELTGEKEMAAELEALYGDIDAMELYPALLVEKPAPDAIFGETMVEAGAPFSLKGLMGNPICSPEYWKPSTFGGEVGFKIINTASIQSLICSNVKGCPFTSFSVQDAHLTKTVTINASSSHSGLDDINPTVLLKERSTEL

EGFR = EGFR (Homo sapiens, UniProt P00533); assay: biochemical; conditions: IC50 EGFR inhibition
Chain of EGFR (P00533 25-1210): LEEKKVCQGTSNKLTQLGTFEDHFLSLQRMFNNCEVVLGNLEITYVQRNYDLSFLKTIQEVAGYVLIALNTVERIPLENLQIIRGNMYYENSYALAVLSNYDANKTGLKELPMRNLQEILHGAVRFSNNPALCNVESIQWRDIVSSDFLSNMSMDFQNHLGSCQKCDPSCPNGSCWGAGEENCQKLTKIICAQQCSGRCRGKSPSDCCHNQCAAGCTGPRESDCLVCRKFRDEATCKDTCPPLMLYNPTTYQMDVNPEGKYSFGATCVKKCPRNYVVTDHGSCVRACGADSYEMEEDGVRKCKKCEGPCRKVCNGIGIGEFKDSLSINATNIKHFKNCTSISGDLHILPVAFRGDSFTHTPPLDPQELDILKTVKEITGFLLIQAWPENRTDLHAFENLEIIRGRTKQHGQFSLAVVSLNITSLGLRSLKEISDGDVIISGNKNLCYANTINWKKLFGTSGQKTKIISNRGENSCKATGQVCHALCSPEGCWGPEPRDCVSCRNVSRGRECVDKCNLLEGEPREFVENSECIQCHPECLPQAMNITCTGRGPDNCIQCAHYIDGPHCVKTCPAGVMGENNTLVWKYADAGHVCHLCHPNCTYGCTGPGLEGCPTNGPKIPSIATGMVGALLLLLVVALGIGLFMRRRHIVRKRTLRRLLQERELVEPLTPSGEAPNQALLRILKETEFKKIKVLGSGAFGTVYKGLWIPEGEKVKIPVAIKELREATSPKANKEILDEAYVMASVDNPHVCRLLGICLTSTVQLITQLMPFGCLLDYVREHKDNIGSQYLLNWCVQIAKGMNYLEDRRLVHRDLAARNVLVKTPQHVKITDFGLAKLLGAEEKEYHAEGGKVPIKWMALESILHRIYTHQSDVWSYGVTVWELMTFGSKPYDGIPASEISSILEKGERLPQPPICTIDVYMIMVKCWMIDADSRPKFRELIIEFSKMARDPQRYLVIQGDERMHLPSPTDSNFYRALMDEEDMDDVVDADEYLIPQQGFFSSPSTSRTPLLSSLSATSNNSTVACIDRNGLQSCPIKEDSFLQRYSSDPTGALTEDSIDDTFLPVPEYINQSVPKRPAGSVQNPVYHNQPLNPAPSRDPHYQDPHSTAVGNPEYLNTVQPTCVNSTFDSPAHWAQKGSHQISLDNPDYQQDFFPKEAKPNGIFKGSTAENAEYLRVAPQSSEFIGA

SN12C = assay: NCI cytotoxicity screen; format: cell-based, human; conditions: 10.0 μM one dose; SN-12C
RXF 393 = assay: NCI cytotoxicity screen; format: cell-based, human; conditions: 10.0 μM one dose
RPMI-8226 = assay: NCI cytotoxicity screen; format: cell-based, human; conditions: 10.0 μM one dose
MDA-MB-468 = assay: NCI cytotoxicity screen; format: cell-based, human; conditions: 10.0 μM one dose
NCI-H226 = assay: NCI cytotoxicity screen; format: cell-based, human; conditions: 10.0 μM one dose
SF-539 = assay: NCI cytotoxicity screen; format: cell-based, human; conditions: 10.0 μM one dose
HCT-116 = assay: NCI cytotoxicity screen; format: cell-based, human; conditions: 10.0 μM one dose
SK-MEL-5 = assay: NCI cytotoxicity screen; format: cell-based, human; conditions: 10.0 μM one dose
OVCAR-5 = assay: NCI cytotoxicity screen; format: cell-based, human; conditions: 10.0 μM one dose; OVCAR-5
SNB-19 = assay: NCI cytotoxicity screen; format: cell-based, human; conditions: 10.0 μM one dose
T-47D = assay: NCI cytotoxicity screen; format: cell-based, human; conditions: 10.0 μM one dose; T-47D
NCI-H23 = assay: NCI cytotoxicity screen; format: cell-based, human; conditions: 10.0 μM one dose
MALME-3M = assay: NCI cytotoxicity screen; format: cell-based, human; conditions: 10.0 μM one dose; MALME-3M
786-0 = assay: NCI cytotoxicity screen; format: cell-based, human; conditions: 10.0 μM one dose
LOX IMVI = assay: NCI cytotoxicity screen; format: cell-based, human; conditions: 10.0 μM one dose
KM12 = assay: NCI cytotoxicity screen; format: cell-based, human; conditions: 10.0 μM one dose; KM-12
M14 = assay: NCI cytotoxicity screen; format: cell-based, human; conditions: 10.0 μM one dose
BT-549 = assay: NCI cytotoxicity screen; format: cell-based, human; conditions: 10.0 μM one dose
MDA-MB-435 = assay: NCI cytotoxicity screen; format: cell-based, human; conditions: 10.0 μM one dose
SR = assay: NCI cytotoxicity screen; format: cell-based, human; conditions: 10.0 μM one dose

“4-((4-Oxo-2-((2-oxo-2-(2-(1-(p-tolyl)ethylidene)hydrazineyl)ethyl)thio)quinazolin-3(4H)-yl)methyl)benzenesulfonamide [Compound 10]” gave a GI % (EKVX) of 10%, a GI % (UO-31) of 20% and a GI % (U251) of 15%. The GI % (SF-268) was 14%, the GI % (CAKI-1) was 16% and the GI % (NCI-H322M) was 14%.

`NS(=O)(=O)c1ccc(Cn2c(=S)[nH]c3ccccc3c2=O)cc1` [Compound 1, 4-((4-Oxo-2-thioxo-1,4-dihydroquinazolin-3(2H)-yl)methyl)benzenesulfonamide] was tested, and the GI % (UO-31) was 19%, the GI % (SNB-75) was 23% and the GI % (HOP-92) was 14%. It also gave a GI % (CAKI-1) of 11%.

`CCOC(=O)CSc1nc2ccccc2c(=O)n1Cc1ccc(S(N)(=O)=O)cc1` [Compound 2, Ethyl 2-((4-oxo-3-(4-sulfamoylbenzyl)-3,4-dihydroquinazolin-2-yl)thio)acetate] showed a GI % (UO-31) of 16% and a GI % (SNB-75) of 15%.

Work on `NS(=O)(=O)c1ccc(Cn2c(SCC(=O)NN=Cc3ccccc3)nc3ccccc3c2=O)cc1` [Compound 4, 4-((2-((2-(2-Benzylidenehydrazineyl)-2-oxoethyl)thio)-4-oxoquinazolin-3(4H)-yl)methyl)benzenesulfonamide] yielded a GI % (EKVX) of 14%, a GI % (UO-31) of 21% and a GI % (NCI-H522) of 18%. It also gave a GI % (HS 578T) of 11%, a GI % (SNB-75) of 13% and a GI % (UACC-62) of 11%. The GI % (MDA-MB-231/ATCC) was 12%, the GI % (MCF7) was 14% and the GI % (CAKI-1) was 16%.

With `COc1cccc(C=NNC(=O)CSc2nc3ccccc3c(=O)n2Cc2ccc(S(N)(=O)=O)cc2)c1` [Compound 7, 4-((2-((2-(2-(3-Methoxybenzylidene)hydrazineyl)-2-oxoethyl)thio)-4-oxoquinazolin-3(4H)-yl)methyl)benzenesulfonamide] the IC50 (HER2) was 387 nM, the “MG% (mean growth percent)” value (59 cancer cell lines) was 89.4% and 89.35% and the IC50 (CDK9) was 155 ± 3.81 nM. The IC50 (COX-2) was 50500 ± 1060 nM and the IC50 (EGFR) was 594 ± 14.5 nM.

For `COc1cc(C=NNC(=O)CSc2nc3ccccc3c(=O)n2Cc2ccc(S(N)(=O)=O)cc2)cc(OC)c1OC` [Compound 8, 4-((4-Oxo-2-((2-oxo-2-(2-(3,4,5-trimethoxybenzylidene)hydrazineyl)ethyl)thio)quinazolin-3(4H)-yl)methyl)benzenesulfonamide], the GI % (SN12C) was 10%, the GI % (EKVX) was 15% and the GI % (RXF 393) was 10%. The GI % (UO-31) was 25%, the GI % (RPMI-8226) was 13% and the GI % (NCI-H522) was 48%. The GI % (HS 578T) was 15%, the GI % (SF-268) was 15% and the GI % (MDA-MB-468) was 19%. It also gave a GI % (NCI-H226) of 11%, a GI % (SF-539) of 12% and a GI % (MDA-MB-231/ATCC) of 15%. The “MG% (mean growth percent)” value (59 cancer cell lines) was 96.8% and 96.77%, the GI % (MCF7) was 11% and the GI % (CAKI-1) was 14%. The GI % (NCI-H322M) was 15%.

Work on `COc1cccc(C(C)=NNC(=O)CSc2nc3ccccc3c(=O)n2Cc2ccc(S(N)(=O)=O)cc2)c1` [Compound 11, 4-((2-((2-(2-(1-(3-Methoxyphenyl)ethylidene)hydrazineyl)-2-oxoethyl)thio)-4-oxoquinazolin-3(4H)-yl)methyl)benzenesulfonamide] yielded a GI % (RXF 393) of 16%, a GI % (UO-31) of 21% and a GI % (NCI-H522) of 52%. The GI % (HS 578T) was 19%, the GI % (U251) was 20% and the GI % (SF-268) was 25%. It also gave a GI % (SNB-75) of 22%, a GI % (HCT-116) of 20% and a GI % (MDA-MB-468) of 19%. It also gave a GI % (SK-MEL-5) of 10%, a GI % (SF-539) of 28% and a GI % (MDA-MB-231/ATCC) of 25%. The “MG% (mean growth percent)” value (59 cancer cell lines) was 94.5% and 94.54%, the GI % (MCF7) was 10% and the GI % (OVCAR-5) was 12%. The GI % (CAKI-1) was 21%, the GI % (SNB-19) was 15% and the GI % (T-47D) was 11%.

With `COc1cc(OC)cc(C(C)=NNC(=O)CSc2nc3ccccc3c(=O)n2Cc2ccc(S(N)(=O)=O)cc2)c1` [Compound 12, 4-((2-((2-(2-(1-(3,5-Dimethoxyphenyl)ethylidene)hydrazineyl)-2-oxoethyl)thio)-4-oxoquinazolin-3(4H)-yl)methyl)benzenesulfonamide] the GI % (NCI-H23) was 17%, the GI % (MALME-3M) was 30% and the GI % (RXF 393) was 30%. For the same compound, the GI % (786-0) was 15%, the GI % (LOX IMVI) was 20% and the IC50 (HER2) was 111 nM. The GI % (NCI-H522) was 62%, the GI % (HS 578T) was 11% and the GI % (KM12) was 30%. For the same compound, the GI % (U251) was 26%, the GI % (SF-268) was 64% and the GI % (SNB-75) was 39%. For the same compound, the GI % (HCT-116) was 17%, the GI % (MDA-MB-468) was 27% and the GI % (M14) was 11%. The GI % (SK-MEL-5) was 32%, the GI % (SF-539) was 64% and the GI % (UACC-62) was 17%. The GI % (BT-549) was 57%, the GI % (MDA-MB-231/ATCC) was 28% and the “MG% (mean growth percent)” value (59 cancer cell lines) was 88.4%. The IC50 (CDK9) was 320 ± 7.85 nM, the GI % (OVCAR-5) was 14% and the GI % (CAKI-1) was 16%. For the same compound, the GI % (MDA-MB-435) was 30%, the IC50 (COX-2) was 21300 ± 440 nM and the GI % (SNB-19) was 49%. The GI % (T-47D) was 62%, the IC50 (EGFR) was 492 ± 12.1 nM and the GI % (SR) was 28%.

With `COc1cc(C(C)=NNC(=O)CSc2nc3ccccc3c(=O)n2Cc2ccc(S(N)(=O)=O)cc2)cc(OC)c1OC` [Compound 13, 4-((4-Oxo-2-((2-oxo-2-(2-(1-(3,4,5-trimethoxyphenyl)ethylidene)hydrazineyl)ethyl)thio)quinazolin-3(4H)-yl)methyl)benzenesulfonamide] the GI % (UO-31) was 24%, the GI % (SNB-75) was 13% and the GI % (MDA-MB-468) was 16%. The GI % (MDA-MB-231/ATCC) was 11%, the “MG% (mean growth percent)” value (59 cancer cell lines) was 97.44% and the GI % (MCF7) was 11%. For the same compound, the GI % (CAKI-1) was 15%, the GI % (T-47D) was 15% and the GI % (SR) was 12%.
